Measurements from ChEMBL document CHEMBL1255438, “Comparative activities of TR-700 (torezolid) against staphylococcal blood isolates collected in Spain” (2010).
≈ marks a conversion by molar mass, not a printed value.

Assays:
Format in all cases: functional
[1] = test system: Staphylococcus aureus; experiment: Antimicrobial activity against oxacillin-susceptible Staphylococcus aureus assessed as inhibition of microbial growth at 0.5 ug/ml by CLSI method
[2] = test system: Staphylococcus; experiment: Antimicrobial activity against linezolid-resistant coagulase-negative Staphylococcus assessed as inhibition of microbial growth at =< 0.25 ug/ml by CLSI method
[3] = test system: Staphylococcus; experiment: Antimicrobial activity against linezolid-resistant coagulase-negative Staphylococcus assessed as inhibition of microbial growth at 4 ug/ml by CLSI method
[4] = test system: Staphylococcus aureus; experiment: Antimicrobial activity against oxacillin-resistant Staphylococcus aureus by CLSI method
[5] = test system: Staphylococcus aureus; experiment: Ratio of Linezolid MIC50 to compound MIC50 for Linezolid-susceptible Staphylococcus aureus
[6] = test system: Staphylococcus aureus; experiment: Antimicrobial activity against oxacillin-susceptible Staphylococcus aureus by CLSI method
[7] = test system: Staphylococcus aureus; experiment: Antimicrobial activity against linezolid-susceptible Staphylococcus aureus assessed as inhibition of microbial growth at =< 0.25 ug/ml by CLSI method
[8] = test system: Staphylococcus; experiment: Antimicrobial activity against oxacillin-resistant coagulase-negative Staphylococcus aureus by CLSI method
[9] = test system: Staphylococcus; experiment: Antimicrobial activity against oxacillin-susceptible coagulase-negative Staphylococcus aureus by CLSI method
[10] = test system: Staphylococcus aureus; experiment: Ratio of Linezolid to compound activity for cfr-expressing methicillin-resistant Staphylococcus aureus
[11] = test system: Staphylococcus aureus; experiment: Antimicrobial activity against oxacillin-resistant Staphylococcus aureus assessed as inhibition of microbial growth at 0.5 ug/ml by CLSI method
[12] = test system: Staphylococcus; experiment: Antimicrobial activity against linezolid-resistant coagulase-negative Staphylococcus by CLSI method
[13] = test system: Staphylococcus; experiment: Antimicrobial activity against linezolid-resistant coagulase-negative Staphylococcus assessed as inhibition of microbial growth at 0.5 ug/ml by CLSI method
[14] = test system: Staphylococcus; experiment: Antimicrobial activity against linezolid-resistant coagulase-negative Staphylococcus assessed as inhibition of microbial growth at 2 ug/ml by CLSI method
[15] = test system: Staphylococcus; experiment: Antimicrobial activity against linezolid-susceptible coagulase-negative Staphylococcus assessed as inhibition of microbial growth at =< 0.25 ug/ml by CLSI method
[16] = test system: Staphylococcus aureus; experiment: Antimicrobial activity against linezolid-susceptible Staphylococcus aureus by CLSI method
[17] = test system: Staphylococcus aureus; experiment: Antimicrobial activity against linezolid-resistant Staphylococcus aureus assessed as inhibition of microbial growth at 0.5 ug/ml by CLSI method
[18] = test system: Staphylococcus aureus; experiment: Antimicrobial activity against methicillin-resistant Staphylococcus aureus by CLSI method
[19] = test system: Staphylococcus; experiment: Antimicrobial activity against Linezolid and methicillin-resistant coagulase-negative Staphylococcus by CLSI method
[20] = test system: Staphylococcus; experiment: Antimicrobial activity against teicoplanin and methicillin-resistant coagulase-negative Staphylococcus by CLSI method
[21] = test system: Staphylococcus aureus; experiment: Antimicrobial activity against linezolid-resistant Staphylococcus aureus by CLSI method
[22] = test system: Staphylococcus; experiment: Antimicrobial activity against linezolid-susceptible coagulase-negative Staphylococcus assessed as inhibition of microbial growth at 0.5 ug/ml by CLSI method
[23] = test system: Staphylococcus aureus; experiment: Ratio of Linezolid MIC90 to compound MIC90 for Linezolid-susceptible Staphylococcus aureus
[24] = test system: Staphylococcus; experiment: Antimicrobial activity against linezolid-susceptible coagulase-negative Staphylococcus by CLSI method
[25] = test system: Staphylococcus aureus; experiment: Antimicrobial activity against linezolid-susceptible Staphylococcus aureus assessed as inhibition of microbial growth at 0.5 ug/ml by CLSI method
[26] = test system: Staphylococcus aureus; experiment: Antimicrobial activity against oxacillin-susceptible coagulase-negative Staphylococcus aureus assessed as inhibition of microbial growth at =< 0.25 ug/ml by CLSI method
[27] = test system: Staphylococcus aureus; experiment: Antimicrobial activity against oxacillin-susceptible Staphylococcus aureus assessed as inhibition of microbial growth at =< 0.25 ug/ml by CLSI method
[28] = test system: Staphylococcus; experiment: Antimicrobial activity against linezolid-resistant coagulase-negative Staphylococcus assessed as inhibition of microbial growth at 1 ug/ml by CLSI method
[29] = test system: Staphylococcus aureus; experiment: Antimicrobial activity against oxacillin-resistant Staphylococcus aureus assessed as inhibition of microbial growth at =< 0.25 ug/ml by CLSI method
[30] = test system: Staphylococcus; experiment: Antimicrobial activity against linezolid-susceptible coagulase-negative Staphylococcus assessed as percent susceptible strain by CLSI method
[31] = test system: Staphylococcus aureus; experiment: Antimicrobial activity against oxacillin-susceptible Staphylococcus aureus assessed as percent susceptible strain by CLSI method
[32] = test system: Staphylococcus aureus; experiment: Antimicrobial activity against linezolid-resistant Staphylococcus aureus assessed as percent susceptible strain by CLSI method
[33] = test system: Staphylococcus aureus; experiment: Antimicrobial activity against linezolid-susceptible Staphylococcus aureus assessed as percent susceptible strain by CLSI method
[34] = test system: Staphylococcus aureus; experiment: Antimicrobial activity against oxacillin-resistant Staphylococcus aureus assessed as percent susceptible strain by CLSI method
[35] = test system: Staphylococcus; experiment: Antimicrobial activity against linezolid-resistant coagulase-negative Staphylococcus assessed as percent susceptible strain by CLSI method
[36] = Antimicrobial activity against oxacillin-susceptible coagulase-negative Staphylococcus aureus assessed as percent susceptible strain by CLSI method

In the case of `Cn1nnc(-c2ccc(-c3ccc(N4C[C@H](CO)OC4=O)cc3F)cn2)n1` [TEDIZOLID], the inhibition at 0.5 µg/mL [1] is reported as 100%, the “inhibition (INH)” value [2] is reported as 20% and the inhibition at 4 µg/mL [3] is reported as 100%. It also gave an MIC50 [4] of 0.25 µg/mL (≈ 0.675 µM), an MIC90 [4] of 0.5 µg/mL (≈ 1.35 µM) and a Ratio [5] of 8. For the same compound, the MIC50 [6] was 0.25 µg/mL (≈ 0.675 µM), the MIC90 [6] was 0.25 µg/mL (≈ 0.675 µM) and the “inhibition (INH)” value [7] was 83.1%. It also gave an MIC50 [8] of 0.125 µg/mL (≈ 0.338 µM), an MIC90 [8] of 0.25 µg/mL (≈ 0.675 µM) and an MIC50 [9] of 0.25 µg/mL (≈ 0.675 µM). It also gave an MIC90 [9] of 0.25 µg/mL (≈ 0.675 µM), a Ratio [10] of 32 and an inhibition at 0.5 µg/mL [11] of 100%. For the same compound, the MIC50 [12] was 2 µg/mL (≈ 5.4 µM), the inhibition at 0.5 µg/mL [13] was 20% and the inhibition at 2 µg/mL [14] was 80%. The “inhibition (INH)” value [15] was 99.5%, the MIC50 [16] was 0.25 µg/mL (≈ 0.675 µM) and the MIC90 [16] was 0.5 µg/mL (≈ 1.35 µM). For the same compound, the inhibition at 0.5 µg/mL [17] was 100%, the MIC [18] was 0.5 µg/mL (≈ 1.35 µM) and the MIC [19] was 0.25 µg/mL (≈ 0.675 µM). It also gave an MIC [20] of 0.25 µg/mL (≈ 0.675 µM), an MIC50 [21] of 0.5 µg/mL (≈ 1.35 µM) and an inhibition at 0.5 µg/mL [22] of 100%. For the same compound, the Ratio [23] was 4, the MIC50 [24] was 0.25 µg/mL (≈ 0.675 µM) and the MIC90 [24] was 0.25 µg/mL (≈ 0.675 µM). The inhibition at 0.5 µg/mL [25] was 100%, the “inhibition (INH)” value [26] was 100% and the “inhibition (INH)” value [27] was 99%. For the same compound, the inhibition at 1 µg/mL [28] was 20% and the “inhibition (INH)” value [29] was 70%.
With `CN[C@H](CC(C)C)C(=O)N[C@H]1C(=O)N[C@@H](CC(N)=O)C(=O)N[C@H]2C(=O)N[C@H]3C(=O)N[C@H](C(=O)N[C@H](C(=O)O)c4cc(O)cc(O)c4-c4cc3ccc4O)[C@H](O)c3ccc(c(Cl)c3)Oc3cc2cc(c3O[C@@H]2O[C@H](CO)[C@@H](O)[C@H](O)[C@H]2O[C@H]2C[C@](C)(N)[C@H](O)[C@H](C)O2)Oc2ccc(cc2Cl)[C@H]1O` [VANCOMYCIN] the Activity [30] was 100%, the MIC50 [4] was 1 µg/mL (≈ 0.69 µM) and the MIC90 [4] was 2 µg/mL (≈ 1.38 µM). The MIC50 [6] was 1 µg/mL (≈ 0.69 µM), the MIC90 [6] was 1 µg/mL (≈ 0.69 µM) and the Activity [31] was 100%. It also gave an MIC50 [8] of 2 µg/mL (≈ 1.38 µM), an MIC90 [8] of 2 µg/mL (≈ 1.38 µM) and an MIC50 [9] of 2 µg/mL (≈ 1.38 µM). It also gave an MIC90 [9] of 2 µg/mL (≈ 1.38 µM), an MIC50 [12] of 2 µg/mL (≈ 1.38 µM) and an Activity [32] of 100%. It also gave an Activity [33] of 99.6%, an MIC50 [16] of 1 µg/mL (≈ 0.69 µM) and an MIC90 [16] of 1 µg/mL (≈ 0.69 µM). For the same compound, the MIC [19] was 2 µg/mL (≈ 1.38 µM), the MIC50 [21] was 2 µg/mL (≈ 1.38 µM) and the MIC50 [24] was 2 µg/mL (≈ 1.38 µM). It also gave an MIC90 [24] of 2 µg/mL (≈ 1.38 µM), an Activity [34] of 99.2% and an Activity [35] of 100%. It also gave an Activity [36] of 100%.
